Test results from US9364462B2, “Alpha-1-adrenergic receptor agonist therapy” (The Regents of the University of California, priority 2012, dated 2016).

Tests used:
[1] = Doxorubicin cardiomyopathy model in adult mice; type: in vivo, mouse
Description: FIG. 6. A61603 prevents doxorubicin cardiomyopathy. DOX was given to adult mice in a single intraperitoneal dose of 25 mg/kg. A61603 was infused subcutaneously (osmotic minipump) for 1 week (top left). We monitored mouse survival over the week, and at the end of 1 week measured heart cell damage and function.
In summary, the alpha-1A agonist A61603 is protective and adaptive in cardiac muscle cells in vitro and in vivo. […] A61603 protects against mortality and cardiomyopathy, by preventing cell death and fibrosis. We chose a model of cardiomyopathy caused by a cancer drug, the anthracycline doxorubicin (DOX). Cancer drug cardiotoxicity is a common and growing problem. We used the same protocol that tested A61603 BP and signaling effects (FIG. 5).

ERK = ERK activation in adult mouse cardiac muscle cells; type: cell-based; settings: low concentration, FIG. 3 left
Source text: (§1) FIG. 3. A61603 protects adult cardiac muscle cells. In adult mouse cardiac muscle cells, A61603 at a low concentration activates ERK (left), and protects against a cardiotoxic cancer drug, (DOX) (right). These effects are not blocked by a beta-blocker, propranolol (Prop), which is current standard of care in heart failure therapy. That is, A61603 effects are additive to those of a beta-blocker. Knockout of the alpha-1A receptor (AKO) eliminates myocyte protection by A61603 (right), showing that the drug does indeed work through the alpha-1A, as expected.

cardiac myocytes = assay: Cardiac cell protective and adaptive (anabolic) effects in vitro, comparison of alpha-1-agonists; type: cell-based; settings: neonatal rat and adult mouse cardiac myocytes, FIG. 1-3
[2] = test system: neonatal rat cardiac muscle cells; assay: Protein synthesis in neonatal rat cardiac muscle cells in vitro; type: cell-based; settings: FIG. 2 (neonatal rat) and FIG. 20
Source text: FIG. 2. A61603 is adaptive in neonatal cardiac muscle cells.
FIG. 20. A61603 is adaptive in cardiac muscle cells.

[3] = Blood pressure after acute intraperitoneal injection, indwelling arterial catheter; type: in vivo, mouse; settings: 10 ng/kg injected acutely intraperitoneal
Description: The classic effect of alpha-1-agonists is to increase BP by stimulating smooth muscle cells to contract. It could be a disadvantage in heart failure (HF) therapy to increase BP excessively. On the other hand, all current recommended drugs in HF reduce BP, and a drug that increased BP slightly might have a strong therapeutic advantage. […] The foregoing experiments provided the rationale to test treatment with A61603 at 10 ng/kg/d in a mouse model of cardiomyopathy and HF.

[4] = test system: adult mouse cardiac muscle cells; assay: Protection of adult mouse cardiac muscle cells against doxorubicin (DOX); type: cell-based
Source text: as §1

[5] = Traumatic brain injury (TBI) by cortical impact, MRI; type: in vivo, mouse; settings: 4 weeks treatment, vs vehicle
Source text: FIG. 16. The alpha-1A agonist A61603 reduces the amount of brain damage after TBI, quantified by MRI. Mice had TBI by cortical impact, followed by 4 weeks treatment with A61603 or vehicle. MRI was done to identify viable brain (dark) and fluid-filled areas of lost brain tissue (bright) (left). The volume of dead brain was 50% less with A61603 (red, right).
To test this, we used a mouse model of traumatic brain injury (TBI), produced by a piston impact on the cerebral cortex, done through a hole in the skull. TBI is a clinical problem of great and growing importance.
We tested the model in the alpha-1A knockout (KO) mouse. TBI in the alpha-1A KO caused the worst damage, compared with normal mice and mice with the alpha-1B KO (FIG. 15). We tested A61603 in normal wild type mice, using the same low BP-neutral dose employed in the cardiac studies, 10 ng/kg/d. The protocol was a prevention trial, and the end-point was magnetic resonance imaging (MRI), which can quantify the amount of dead and viable brain tissue in the living subject (e.g. mouse, human) non-invasively. A61603 reduced the amount of dead brain tissue after TBI (FIG. 16).

neurons in brain slices = assay: Adult mouse brain slices injured with H2O2 ex vivo; type: cell-based; settings: H2O2, 2 h
Description: FIG. 13. Brain slice model to study alpha-1A agonist in vitro. Thin brain slices were injured with hydrogen peroxide (H2O2), which simulates most forms of ischemic and traumatic injury at the cell level, in the presence or absence of A61603. After 2 hr, dead neurons (PI) and living neurons (ATP) were measured.
FIG. 14. A61603 protects neurons in brain slices from oxidative injury in vitro. Slices were treated with H2O2 or vehicle (Veh) for 2 hr, in the presence of A61603, or absence (Veh).
Studies were conducted in mice looking at alpha-1 agonist therapy, using A61603, in a model of traumatic brain injury. Alpha-1-ARs are 10 times more abundant in neurons than in cardiac myocytes, and the alpha-1A subtype is the most abundant. […]
Alpha-1A-adrenergic receptors (α1A-ARs) have a protective trophic role in the heart. α1A-AR levels are high in the brain, and neuroprotection by norepinephrine is known. […] Ex vivo, we quantified ATP levels (marker for survival) in mouse brain slices injured by 10μ, M H2O2 and treated for 2 h with A61603 (a1A-AR specific agonist) or Vehicle. We quantified the number of dead neurons (propidium iodide (PI) positive) out of total (NeuN positive) in the same treated slices by immunohistochemistry (IHC). In vivo, we measured brain infarct size (BrdU-positive glial cells) after transient focal ischemia and reperfusion (IR) in α1ABKO and WT mice. […]

With `CS(=O)(=O)Nc1c(O)ccc2c1CCCC2C1=NCCN1` (stereo not drawn) [A61603, N-[1-(4,5-dihydro-1H-imidazol-2-yl)-6-hydroxy-tetralin-5-yl]methanesulfonamide] as the compound, how does the “survival after DOX” value ([1]; DOX 25 mg/kg ip single dose, A61603 sc infusion 1 week, vs vehicle) read?
Its value is “markedly improved”.

And the “cell death by apoptosis (caspase 3/7 activity and TUNEL staining)” value ([1]; after DOX, end of 1 week)?
The value was “improved”.

And the “cell death by necrosis (serum CK, creatine kinase)” value ([1]; after DOX, end of 1 week)?
Its value is “improved”.

And the “indices of myocardial fibrosis” value ([1]; after DOX, end of 1 week)?
Its value is “improved”.

And the “protective effect on survival in alpha-1A knockout (KO)” value ([1]; alpha-1A KO mice after DOX)?
The value was “lost”.

What about the “heart function by echocardiography (fractional shortening)” value ([1]; surviving mice, end of 1 week) of the same compound?
Its value is “improved”.

What about the ERK activation (ERK) of the same compound?
Its ERK activation is “activates ERK”.

What about the “potency and efficacy relative to several other alpha-1-agonists” value (cardiac myocytes) of the same compound?
The value was “more potent (i.e. worked at a lower dose) and efficacious (i.e. had a larger total effect)”.

What about the “activation of protein synthesis” value [2] of the same compound?
The value was “high efficacy and potency”.

And the BP [3]?
Its BP is “does not increase BP”.

And the “protection against cardiotoxic cancer drug (DOX)” value ([4]; FIG. 3 right)?
Its value is “protects”.

What about the “ERK activation and DOX protection in presence of beta-blocker propranolol” value ([4]; with propranolol (Prop)) of the same compound?
Its value is “not blocked”.

What about the “volume of dead brain, less with A61603” value [5] of the same compound?
Its value is 50%.

What about the “ATP levels after H2O2” value (neurons in brain slices; N=2, vehicle 5.5±0.5) of the same compound?
Its value is 8±1 nmol/mg protein.

What about the “number of dead neurons caused by H2O2 (PI positive out of total NeuN positive)” value (neurons in brain slices; N=2, vehicle 86±5.3) of the same compound?
Its value is 46±0.3.
